The values below come from US10143731B2, “Peptides and combination of peptides for use in immunotherapy against various cancers” (immatics biotechnologies GmbH, priority 2015, dated 2018).

The first test has as its system CD8+ T cells. The test can be described thus: In vitro T-cell priming assay (aAPCs loaded with peptide/MHC and anti-CD28, multimer staining readout). The class given is cell-based, human. Conditions: in vitro immunogenicity of HLA class I peptides. As for the experimental part:
In an aspect, the peptides are pre-screened for immunogenicity before being included in the warehouse. By way of example, and not limitation, the immunogenicity of the peptides included in the warehouse is determined by a method comprising in vitro T-cell priming through repeated stimulations of CD8+ T cells from healthy donors with artificial antigen presenting cells loaded with peptide/MHC complexes and anti-CD28 antibody.
In order to obtain information regarding the immunogenicity of the TUMAPs of the present invention, the inventors performed investigations using an in vitro T-cell priming assay based on repeated stimulations of CD8+ T cells with artificial antigen presenting cells (aAPCs) loaded with peptide/MHC complexes and anti-CD28 antibody.
In order to perform in vitro stimulations by artificial antigen presenting cells loaded with peptide-MHC complex (pMHC) and anti-CD28 antibody, the inventors first isolated CD8+ T cells from fresh HLA-A*02 leukapheresis products via positive selection using CD8 microbeads (Miltenyi Biotec, Bergisch-Gladbach, Germany) of healthy donors obtained from the University clinics Mannheim, Germany, after informed consent.
PBMCs and isolated CD8+ lymphocytes were incubated in T-cell medium (TCM) until use consisting of RPMI-Glutamax (Invitrogen, Karlsruhe, Germany) supplemented with 10% heat inactivated human AB serum (PAN-Biotech, Aidenbach, Germany), 100 U/ml Penicillin/100 μg/ml Streptomycin (Cambrex, Cologne, Germany), 1 mM sodium pyruvate (CC Pro, Oberdorla, Germany), 20 μg/ml Gentamycin (Cambrex). 2.5 ng/ml IL7 (PromoCell, Heidelberg, Germany) and 10 U/ml IL-2 (Novartis Pharma, Nürnberg, Germany) were also added to the TCM at this step.
Generation of pMHC/anti-CD28 coated beads, T-cell stimulations and readout was performed in a highly defined in vitro system using four different pMHC molecules per stimulation condition and 8 different pMHC molecules per readout condition.
The purified co-stimulatory mouse IgG2a anti human CD28 Ab 9.3 (Jung et al., 1987) was chemically biotinylated using Sulfo-N-hydroxysuccinimidobiotin as recommended by the manufacturer (Perbio, Bonn, Germany). Beads used were 5.6 μm diameter streptavidin coated polystyrene particles (Bangs Laboratories, Illinois, USA).
pMHC used for positive and negative control stimulations were A*0201/MLA-001 (peptide […] (SEQ ID NO. 303) from modified Melan-A/MART-1) and A*0201/DDX5-001 ([…] from DDX5, SEQ ID NO. 304), respectively.
800.000 beads/200 μl were coated in 96-well plates in the presence of 4×12.5 ng different biotin-pMHC, washed and 600 ng biotin anti-CD28 were added subsequently in a volume of 200 μl. Stimulations were initiated in 96-well plates by co-incubating 1×10^6 CD8+ T cells with 2×10^5 washed coated beads in 200 μl TCM supplemented with 5 ng/ml IL-12 (PromoCell) for 3 days at 37° C. Half of the medium was then exchanged by fresh TCM supplemented with 80 U/ml IL-2 and incubating was continued for 4 days at 37° C. This stimulation cycle was performed for a total of three times. For the pMHC multimer readout using 8 different pMHC molecules per condition, a two-dimensional combinatorial coding approach was used as previously described (Andersen et al., 2012) with minor modifications encompassing coupling to 5 different fluorochromes. Finally, multimeric analyses were performed by staining the cells with Live/dead near IR dye (Invitrogen, Karlsruhe, Germany), CD8-FITC antibody clone SK1 (BD, Heidelberg, Germany) and fluorescent pMHC multimers. For analysis, a BD LSRII SORP cytometer equipped with appropriate lasers and filters was used. Peptide specific cells were calculated as percentage of total CD8+ cells. Evaluation of multimeric analysis was done using the FlowJo software (Tree Star, Oregon, USA). In vitro priming of specific multimer+CD8+ lymphocytes was detected by comparing to negative control stimulations.
Turning to “5 (GIVAHIQEV; listed as Homo sapiens) [compound 5]”, the “Wells positive [%]” value is given as “+ (<20% = +)”.
Still for that read-out and setting: with “18 (ILLDLTDNRL; listed as Homo sapiens) [compound 18]” the entry was “+ (<20% = +)”; with “23 (SLFSDEFKV; listed as Homo sapiens) [compound 23]”, “++++ (> = 70% = ++++)”; with “26 (ALQEELTEL; listed as Homo sapiens) [compound 26]”, “+ (<20% = +)”.
“29 (YLLDPSITL; listed as Homo sapiens) [compound 29]”: the “Wells positive [%]” value is given as “+ (<20% = +)”.
Consider “31 (TITETTVEV; listed as Homo sapiens) [compound 31]”, for which the “Wells positive [%]” value is reported as “+ (<20% = +)”.
As for “35 (FLLPFSTVYL; listed as Homo sapiens) [compound 35]”, the “Wells positive [%]” value is on record as “+ (<20% = +)”.
With “90 (FLQDLEQRL; listed as Homo sapiens) [compound 90]”, the “Wells positive [%]” value was “+ (<20% = +)”.
Regarding “141 (FLDKVLVAA; listed as Homo sapiens) [compound 141]”, the “Wells positive [%]” value was “+ (<20% = +)”.
“149 (ILNTHITEL; listed as Homo sapiens) [compound 149]”: the “Wells positive [%]” value was “+ (<20% = +)”.
For the substance “196 (LYIDRPLPYL; listed as Homo sapiens) [compound 196]”, the “Wells positive [%]” value is reported as “++++ (> = 70% = ++++)”.
Take “197 (EYSLFPGQVVI; listed as Homo sapiens) [compound 197]”: the “Wells positive [%]” value was “+ (<20% = +)”.
As for “207 (AYVVFVSTL; listed as Homo sapiens) [compound 207]”, the “Wells positive [%]” value is recorded as “+ (<20% = +)”.

The test system of a further test is HLA-A*24. The test can be described thus: MHC binding assay by UV-ligand exchange and beta2m ELISA, HLA-A*24. On the set-up: species or system human. To be noted: binding to HLA-A*24 ranged by peptide exchange yield (UV-ligand exchange, β2m ELISA). An excerpt: MHC Binding Assays Candidate peptides for T cell based therapies according to the present invention were further tested for their MHC binding capacity (affinity). The individual peptide-MHC complexes were produced by UV-ligand exchange, where a UV-sensitive peptide is cleaved upon UV-irradiation, and exchanged with the peptide of interest as analyzed. Only peptide candidates that can effectively bind and stabilize the peptide-receptive MHC molecules prevent dissociation of the MHC complexes. To determine the yield of the exchange reaction, an ELISA was performed based on the detection of the light chain (β2m) of stabilized MHC complexes. The assay was performed as generally described in Rodenko et al. (Rodenko et al., 2006).
96 well MAXISorp plates (NUNC) were coated over night with 2 ug/ml streptavidin in PBS at room temperature, washed 4× and blocked for 1 h at 37° C. in 2% BSA containing blocking buffer. Refolded HLA-A*02:01/MLA-001 monomers served as standards, covering the range of 15-500 ng/ml. Peptide-MHC monomers of the UV-exchange reaction were diluted 100 fold in blocking buffer. Samples were incubated for 1 h at 37° C., washed four times, incubated with 2 ug/ml HRP conjugated anti-β2m for 1 h at 37° C., washed again and detected with TMB solution that is stopped with […]. Absorption was measured at 450 nm. Candidate peptides that show a high exchange yield (preferably higher than 50%, most preferred higher than 75%) are generally preferred for a generation and production of antibodies or fragments thereof, and/or T cell receptors or fragments thereof, as they show sufficient avidity to the MHC molecules and prevent dissociation of the MHC complexes.
Background: ELISA stands for enzyme-linked immunosorbent assay.
As to “160 (VYTLDIPVL; listed as Homo sapiens) [compound 160]”, the Peptide exchange entry is recorded as “++++ (> = 75% = ++++)”.
Regarding “161 (IYLVSIPEL; listed as Homo sapiens) [compound 161]”, the Peptide exchange entry is on record as “++++ (> = 75% = ++++)”.
On the same count and under the same terms, the entry for “166 (YYVESGKLF; listed as Homo sapiens) [compound 166]” is “++++ (> = 75% = ++++)”; for “168 (KYQDILETI; listed as Homo sapiens) [compound 168]” it is “++++ (> = 75% = ++++)”.
With “172 (TYTTVPRVAF; listed as Homo sapiens) [compound 172]”, the Peptide exchange result is on record as “++++ (> = 75% = ++++)”.
As for “173 (IYSWILDHF; listed as Homo sapiens) [compound 173]”, the Peptide exchange result is reported as “++++ (> = 75% = ++++)”.
For the substance “175 (YYEVHKELF; listed as Homo sapiens) [compound 175]”, the Peptide exchange result is “++++ (> = 75% = ++++)”.
In the case of “177 (VYPWLGALL; listed as Homo sapiens) [compound 177]”, the Peptide exchange entry is recorded as “++++ (> = 75% = ++++)”.
In the case of “179 (MYDSYWRQF; listed as Homo sapiens) [compound 179]”, the Peptide exchange entry is “++++ (> = 75% = ++++)”.
As for “181 (LYLDIINLF; listed as Homo sapiens) [compound 181]”, the Peptide exchange entry is reported as “++++ (> = 75% = ++++)”.
On the same count and under the same terms, the entry for “184 (VFQNFPLLF; listed as Homo sapiens) [compound 184]” is “++++ (> = 75% = ++++)”; for “186 (IFPQFLYQF; listed as Homo sapiens) [compound 186]” it is “++++ (> = 75% = ++++)”; for “187 (TYLRDQHFL; listed as Homo sapiens) [compound 187]” it is “++++ (> = 75% = ++++)”.
For the substance “192 (SYALLTYMI; listed as Homo sapiens) [compound 192]”, the Peptide exchange entry is given as “++++ (> = 75% = ++++)”.
In the case of “193 (RFHPTPLLL; listed as Homo sapiens) [compound 193]”, the Peptide exchange result is listed as “++++ (> = 75% = ++++)”.
On the same count and under the same terms, the entry for “195 (TYSVSFPMF; listed as Homo sapiens) [compound 195]” is “++++ (> = 75% = ++++)”; for “202 (VYWDSAGAAHF; listed as Homo sapiens) [compound 202]” it is “++++ (> = 75% = ++++)”; for “210 (IYTMIYRNL; listed as Homo sapiens) [compound 210]” it is “++++ (> = 75% = ++++)”.
Consider “211 (YYLEVGKTLI; listed as Homo sapiens) [compound 211]”, for which the Peptide exchange result is given as “++++ (> = 75% = ++++)”.
Consider “216 (QYSSVFKSL; listed as Homo sapiens) [compound 216]”, for which the Peptide exchange result was “++++ (> = 75% = ++++)”.
On to “217 (FFPPTRQMGLLF; listed as Homo sapiens) [compound 217]”, for which the Peptide exchange entry is reported as “++++ (> = 75% = ++++)”.
With “227 (IFLDYEAGTLSF; listed as Homo sapiens) [compound 227]”, the Peptide exchange result is given as “++++ (> = 75% = ++++)”.
Consider “228 (KYTSWYVAL; listed as Homo sapiens) [compound 228]”, for which the Peptide exchange entry was “++++ (> = 75% = ++++)”.
Take “267 (KYMVYPQTF; listed as Homo sapiens) [compound 267]”: the Peptide exchange result is on record as “++++ (> = 75% = ++++)”.
In the case of “271 (LYHDIFSRL; listed as Homo sapiens) [compound 271]”, the Peptide exchange entry is “++++ (> = 75% = ++++)”.
For “272 (QYLQDAYSF; listed as Homo sapiens) [compound 272]”, the Peptide exchange entry is on record as “++++ (> = 75% = ++++)”.
For the substance “274 (AYLHSHALI; listed as Homo sapiens) [compound 274]”, the Peptide exchange entry is reported as “++++ (> = 75% = ++++)”.
For “276 (VYGFQWRHF; listed as Homo sapiens) [compound 276]”, the Peptide exchange entry is listed as “++++ (> = 75% = ++++)”.
For the substance “277 (VYQGHTALL; listed as Homo sapiens) [compound 277]”, the Peptide exchange result was “++++ (> = 75% = ++++)”.
Regarding “278 (RYISDQLFTNF; listed as Homo sapiens) [compound 278]”, the Peptide exchange result is on record as “++++ (> = 75% = ++++)”.
The same measure, in the same setting: with “280 (RYPDNLKHLYL; listed as Homo sapiens) [compound 280]” the entry was “++++ (> = 75% = ++++)”; with “282 (KFVDSTFYL; listed as Homo sapiens) [compound 282]”, “++++ (> = 75% = ++++)”; with “289 (KYPVEWAKF; listed as Homo sapiens) [compound 289]”, “++++ (> = 75% = ++++)”.
